Test results reported in patent publication US11118200B2, “Method for preparing amines from aldehydes and ketones by biocatalysis” (COMMISSARIAT A L'ENERGIE ATOMIQUE ET AUX ENERGIES …, priority 2017, dated 2021).
Marks after values point to notes of the source that are not given here.

Legend:
enzyme of SEQ ID NO:4 = assay: Screening of carbonyl-containing compounds with ammonia as amine source (specific activity, absorbance at 340 nm); format: biochemical, Aminomonas paucivorans DSM 12260; set-up: key to Detection of the expected compound, SEQ ID NO: 4: d: detected activity; nd: not detected activity; conditions: for activity of enzyme of SEQ ID NO:4 towards the substrate (in words): reductive amination
Protocol: All the reactions were conducted at 25° C. in spectrophotometric cell (10 mm light path). To a mixture of ammonium formate buffer (2 M NH4HCO2/NH4OH, pH 9.5), NADH or NADPH (0.2 mM) and an appropriate amount of purified enzyme was added. Carbonyl-containing compound (5 or 10 mM) is then added to initiate the reaction (reaction final volume 100 μL). The initial slope measured at 340 nm determined the specific activity of the enzyme according to Beer-Lambert's law and the molar absorptivity of β-NADH (ϵ=6298 M^−1 cm^−1).

enzyme of SEQ ID NO:3 = assay: as above; format: biochemical, Microbacterium sp. MA1; conditions: for Specific activity, SEQ ID NO: 3: 10 mM of carbonyl-containing compound, ammonia as amine source; for activity of enzyme of SEQ ID NO:3 towards the substrate (in words): reductive amination
Protocol: (§1) All the reactions were conducted at 25° C. in spectrophotometric cell (10 mm light path). To a mixture of ammonium formate buffer (2 M NH4HCO2/NH4OH, pH 9.5), NADH or NADPH (0.2 mM) and an appropriate amount of purified enzyme was added.

enzyme of SEQ ID NO:1 = assay: as above; format: biochemical, Mycobacterium smegmatis; conditions: for Specific activity, SEQ ID NO: 1: 0.2 mM NADPH (best of NADH/NADPH), 10 mM of carbonyl-containing compound, ammonia as amine source; for activity of enzyme of SEQ ID NO:1 towards the substrate (in words): reductive amination
Protocol: as §1

enzyme of SEQ ID NO:2 = assay: as above; format: biochemical, Cystobacter fuscus DSM 2262; conditions: for Specific activity, SEQ ID NO: 2: 0.2 mM NADPH (best of NADH/NADPH), 10 mM of carbonyl-containing compound, ammonia as amine source; for activity of enzyme of SEQ ID NO:2 towards the substrate (in words): reductive amination
Protocol: as §1

PheDH-AmDH K77S/N276L = PheDH-AmDH K77S/N276L (Pseudobacillus badius, UniProt Q59224, K78S/N277L); conditions: prior-art engineered enzyme; cited from earlier work
[1] = 0.2 mM NADPH (best of NADH/NADPH)

Sequence of PheDH-AmDH K77S/N276L (Q59224 whole entry K78S/N277L): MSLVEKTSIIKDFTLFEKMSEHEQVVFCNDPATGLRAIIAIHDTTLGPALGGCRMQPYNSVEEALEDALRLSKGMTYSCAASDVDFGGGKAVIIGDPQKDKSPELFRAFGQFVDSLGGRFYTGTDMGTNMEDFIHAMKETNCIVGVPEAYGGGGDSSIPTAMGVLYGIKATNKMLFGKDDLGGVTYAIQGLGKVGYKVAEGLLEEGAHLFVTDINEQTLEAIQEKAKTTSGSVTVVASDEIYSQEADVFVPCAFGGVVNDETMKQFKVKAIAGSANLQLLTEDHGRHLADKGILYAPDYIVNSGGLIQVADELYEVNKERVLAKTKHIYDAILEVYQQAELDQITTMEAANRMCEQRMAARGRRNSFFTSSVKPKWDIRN

In the case of `CCCCC=O` [drawing 122], the “Specific activity, SEQ ID NO: 4” value (enzyme of SEQ ID NO:4; 0.2 mM NADH (best of NADH/NADPH), 10 mM of carbonyl-containing compound, ammonia as amine source) is reported as 89.1^a mU.mg^-1 and the “Detection of the expected compound, SEQ ID NO: 4” value (enzyme of SEQ ID NO:4; ammonia as amine source, pH 9.5, 25° C.) is reported as “d”.

For `CCCCC=O` [drawing 146], the “Specific activity, SEQ ID NO: 3” value (enzyme of SEQ ID NO:3; [1]) was 57.8^b mU.mg^-1, the “Specific activity, SEQ ID NO: 1” value (enzyme of SEQ ID NO:1) was 26.8^b mU.mg^-1 and the “Specific activity, SEQ ID NO: 2” value (enzyme of SEQ ID NO:2) was 72.9^b mU.mg^-1.

In the case of `CC(=O)CCC(=O)O` [4-oxopentanoic acid], the “activity of enzyme of SEQ ID NO:3 towards the substrate (in words)” value (enzyme of SEQ ID NO:3) is reported as “inactive”, the “activity of enzyme of SEQ ID NO:1 towards the substrate (in words)” value (enzyme of SEQ ID NO:1) is reported as “inactive” and the “activity of enzyme of SEQ ID NO:2 towards the substrate (in words)” value (enzyme of SEQ ID NO:2) is reported as “inactive”. The “activity of enzyme of SEQ ID NO:4 towards the substrate (in words)” value (enzyme of SEQ ID NO:4) was “inactive”.

With `CC(=O)CC(N)C(=O)O` (stereo not shown) [2-amino-4-oxopentanoic acid] the “activity of enzyme of SEQ ID NO:3 towards the substrate (in words)” value (enzyme of SEQ ID NO:3) was “inactive”, the “activity of enzyme of SEQ ID NO:1 towards the substrate (in words)” value (enzyme of SEQ ID NO:1) was “inactive” and the “activity of enzyme of SEQ ID NO:2 towards the substrate (in words)” value (enzyme of SEQ ID NO:2) was “inactive”. The “activity of enzyme of SEQ ID NO:4 towards the substrate (in words)” value (enzyme of SEQ ID NO:4) was “inactive”.

In the case of `CC1CCCC1=O` (stereo not shown), the “Specific activity, SEQ ID NO: 3” value (enzyme of SEQ ID NO:3; [1]) is reported as 90.3^b mU.mg^-1, the “Specific activity, SEQ ID NO: 1” value (enzyme of SEQ ID NO:1) is reported as 65.2^b mU.mg^-1 and the “Specific activity, SEQ ID NO: 2” value (enzyme of SEQ ID NO:2) is reported as 8.8^b mU.mg^-1.

In the case of `CC1CCCCC1=O` (racemic) [2-methylcyclohexanone], the “Specific activity, SEQ ID NO: 3” value (enzyme of SEQ ID NO:3; 0.2 mM NADH (best of NADH/NADPH)) is reported as 337.0 mU.mg^-1, the “Specific activity, SEQ ID NO: 3” value (enzyme of SEQ ID NO:3; 0.2 mM NADH (best of NADH/NADPH), listed as drawing 132) is reported as 337.0a mU.mg^-1 and the “Specific activity, SEQ ID NO: 1” value (enzyme of SEQ ID NO:1) is reported as 175.3 mU.mg^-1. For the same molecule, the “Specific activity, SEQ ID NO: 1” value (enzyme of SEQ ID NO:1; listed as drawing 132) was 175.3^b mU.mg^-1, the “Specific activity, SEQ ID NO: 2” value (enzyme of SEQ ID NO:2) was 14.8^b mU.mg^-1 and the “specific activity of PheDH-AmDH K77S/N276L” value (PheDH-AmDH K77S/N276L) was 19.3 mU·mg^−1.

For `O=C1CCCC1`, the “Specific activity, SEQ ID NO: 3” value (enzyme of SEQ ID NO:3; [1]) was 60.6^b mU.mg^-1, the “Specific activity, SEQ ID NO: 1” value (enzyme of SEQ ID NO:1) was 5.6^b mU.mg^-1 and the “Specific activity, SEQ ID NO: 2” value (enzyme of SEQ ID NO:2) was 24.2^b mU.mg^-1.
